US6461997B1, “Triazole sulfones having herbicidal activity” (Monsanto Technology LLC, priority 1999, dated 2002)

Experiments:
[1] = tested on: ECHCG (barnyardgrass); assay: Pre-emergence herbicidal activity, warm season; format: in vivo, Echinochloa crus-galli; details: GR80 = lowest tested rate (300, 100, 30, 10 g/ha) with 80% or greater inhibition; approx. 14 days after treating; 30/21° C.
In short: (§1)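 Seeds sown in sterilised fertilised topsoil received surface-applied compound in 50:50 acetone/water, typically at 300, 100, 30 and 10 g/ha, then greenhouse-grown at 30/21° C (warm-season species) or 18/13° C (cool-season species). Percent inhibition versus untreated plants was scored at about 14 days, giving GR80; an asterisk marks activity short of 80% at the top rate.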

[2] = tested on: wheat (TRZAW); assay: Selectivity test, PPI, cool season crop; format: in vivo, Triticum aestivum; details: PPI application; for inhibition at 10 g/ha / inhibition at 30 g/ha / inhibition at 100 g/ha / inhibition at 300 g/ha / inhibition at 900 g/ha: Triticum aestivum, read-out: Percent inhibition TRZAW
Procedure: (§2) A pre-prepared topsoil mixture (described above) was placed in a pot and compacted to a depth of 1.0 to 1.25 cm from the top of the pot. Seeds of each of several monocotyledonous and dicotyledonous annual plant species were placed on top of the soil. A sufficient quantity of soil to cover the seeds and level fill the pot was weighed into an open container. A known amount of the test compound was dissolved or suspended in an organic solvent and applied by spraying to this cover soil. The cover soil was thoroughly mixed to distribute the test compound throughout the cover soil, and was then applied as a cover layer over the seeds. Untreated soil was used as a cover layer for control pots. After treatment the plants were placed in a greenhouse where they received 0.64 cm of overhead irrigation. All subsequent watering consisted of a light overhead mist and/or subirrigation as needed for germination and growth. Tables 9 and 10 below relate to warm season plant species which were placed after pre-emergence treatment in a greenhouse with a 30/21° C. day/night temperature regime. Tables 11 and 12 below relates to cool season plant species placed after pre-emergence treatment in a greenhouse or growth chamber with an 18/13° C. day/night temperature regime. Only the compounds of Examples 1, 6, 8, 11, 13 and 15-20 were included in PPI tests.
(§3) Approximately 14 days after planting and treating, the plants were observed and herbicidal efficacy recorded as percent inhibition by comparison with untreated plants.
Additional pre-emergence and PPI tests were conducted by the procedures described above, on warm and cool season weed species in the presence of crop species, to assess herbicidal selectivity. Crop species included in warm season tests were corn (Zea mays, ZEAMX), rice (Oryza sativa, ORYSA) and soybean (Glycine max, GLYMX). Crop species included in cool season tests were wheat (Triticum aestivum, TRZAW), barley (Hordeunm vulgare, HORVX) and oilseed rape (Brassica napus, BRSNS).
Tables 15 and 16 relate to pre-emergence and PPI tests respectively on warm season species. Table 17 relates to pre-emergence tests on cool season species.

[3] = tested on: AGSST (creeping bentgrass); assay: Pre-emergence herbicidal activity, cool season; format: in vivo, Agrostis stolonifera; details: GR80 = lowest tested rate (300, 100, 30, 10 g/ha) with 80% or greater inhibition; approx. 14 days after treating; 18/13° C.
In short: (§4)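 GR80 values derive from percent inhibition relative to untreated plants, read roughly 14 days after sowing and pre-emergence soil-surface treatment (compound in 50:50 acetone/water; rates typically 10, 30, 100, 300 g/ha). Warm-season weeds grew at 30/21° C day/night, cool-season ones at 18/13° C; an asterisk marks activity without reaching 80% at the highest rate.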

[4] = tested on: AMARE (redroot pigweed); assay: Pre-emergence herbicidal activity, warm season; format: in vivo, Amaranthus retroflexus; details: GR80 = lowest tested rate (300, 100, 30, 10 g/ha) with 80% or greater inhibition; approx. 14 days after treating; 30/21° C.
In short: as §4

[5] = tested on: BRAPP (broadleaf signalgrass); assay: Pre-emergence herbicidal activity, warm season; format: in vivo, Brachiaria platyphylla; details: GR80 = lowest tested rate (300, 100, 30, 10 g/ha) with 80% or greater inhibition; approx. 14 days after treating; 30/21° C.
In short: as §1

[6] = tested on: SETVI (green foxtail); assay: Pre-plant incorporated (PPI) herbicidal activity, cool season; format: in vivo, Setaria viridis; details: for inhibition at 10 g/ha / inhibition at 30 g/ha / inhibition at 100 g/ha / inhibition at 300 g/ha / inhibition at 900 g/ha: Setaria viridis, read-out: Percent inhibition SETVI; for inhibition at 10 g/ha / inhibition at 30 g/ha / inhibition at 100 g/ha / inhibition at 300 g/ha / inhibition at 900 g/ha / Percent inhibition SETVI: weed, PPI application; for PPI activity GR80, SETVI: pre-plant incorporated, lowest tested rate with 80% or greater inhibition, about 14 days
Procedure: (§5) In another set of tests, the pre-plant incorporated (PPI) activity of compounds of this invention was evaluated on the same species as for the pre-emergence tests described above. In the PPI tests the following procedure, designed to simulate PPI application, was used.
as §2, §3

[7] = tested on: LAMPU (purple deadnettle); assay: as above; format: in vivo, Lamium purpureum; details: for PPI activity GR80, LAMPU: pre-plant incorporated, lowest tested rate with 80% or greater inhibition, about 14 days
Procedure: as §5, §2, §3

[8] = tested on: SORHA (johnsongrass (seedling)); assay: Pre-emergence herbicidal activity, warm season; format: in vivo, Sorghum halepense; details: GR80 = lowest tested rate (300, 100, 30, 10 g/ha) with 80% or greater inhibition; approx. 14 days after treating; 30/21° C.
In short: as §1

[9] = tested on: ALOMY (blackgrass); assay: Pre-plant incorporated (PPI) herbicidal activity, cool season; format: in vivo, Alopecurus myosuroides; details: for inhibition at 10 g/ha / inhibition at 30 g/ha / inhibition at 100 g/ha / inhibition at 300 g/ha / inhibition at 900 g/ha: Alopecurus myosuroides, read-out: Percent inhibition ALOMY; for inhibition at 10 g/ha / inhibition at 30 g/ha / inhibition at 100 g/ha / inhibition at 300 g/ha / inhibition at 900 g/ha / Percent inhibition ALOMY: weed, PPI application; for PPI activity GR80, ALOMY: pre-plant incorporated, lowest tested rate with 80% or greater inhibition, about 14 days
Procedure: as §5, §2, §3

[10] = tested on: SORVU (shattercane); assay: Pre-plant incorporated (PPI) herbicidal activity, warm season; format: in vivo, Sorghum vulgare; details: for inhibition at 10 g/ha / inhibition at 30 g/ha / inhibition at 100 g/ha / inhibition at 300 g/ha / inhibition at 900 g/ha: Sorghum bicolor, read-out: Percent inhibition SORVU; for inhibition at 10 g/ha / inhibition at 30 g/ha / inhibition at 100 g/ha / inhibition at 300 g/ha / inhibition at 900 g/ha / Percent inhibition SORVU: PPI application; for PPI activity GR80, SORVU: pre-plant incorporated, lowest tested rate with 80% or greater inhibition, about 14 days
Procedure: as §5, §2, §3

[11] = Lamium purpureum, weed, PPI application, read-out: Percent inhibition LAMPU
[12] = Lamium purpureum, weed, PPI application, 30 g/ha, read-out: Percent inhibition LAMPU
[13] = Lamium purpureum, weed, PPI application, 300 g/ha, read-out: Percent inhibition LAMPU
[14] = Lamium purpureum, weed, PPI application, 900 g/ha, read-out: Percent inhibition LAMPU

SMILES | Pre-emergence activity (GR80) ECHCG [1] [g/ha] | inhibition at 30 g/ha ([2]; 30 g/ha) [%] | inhibition at 100 g/ha ([2]; 100 g/ha) [%] | inhibition at 300 g/ha ([2]; 300 g/ha) [%] | inhibition at 900 g/ha ([2]; 900 g/ha) [%] | Pre-emergence activity (GR80) AGSST [3] [g/ha] | Pre-emergence activity (GR80) AMARE [4] | Pre-emergence activity (GR80) BRAPP [5] [g/ha] | inhibition at 30 g/ha ([6]; 30 g/ha) [%] | inhibition at 100 g/ha ([6]; 100 g/ha) [%] | inhibition at 300 g/ha ([6]; 300 g/ha) [%] | inhibition at 900 g/ha ([6]; 900 g/ha) [%] | PPI activity GR80, SETVI [6] [g/ha] | inhibition at 30 g/ha [7, 12] [%] | inhibition at 300 g/ha [7, 13] [%] | inhibition at 900 g/ha [7, 14] [%] | PPI activity GR80, LAMPU [7] [g/ha] | Pre-emergence activity (GR80) SORHA [8] [g/ha] | inhibition at 30 g/ha ([9]; 30 g/ha) [%] | inhibition at 100 g/ha ([9]; 100 g/ha) [%] | further results
C=C(C)CC(F)(F)S(=O)(=O)c1ncn(C(=O)N(CC)CC)n1 [Example 18] | 100 | 0 | 0 | 30 | 60 | 30 | 300 g/ha | 300 | 100 | 100 | 60 | 100 | 30 | 0 | 0 | 70 | 10 | 100 | 60 | 30 | inhibition at 10 g/ha [2]: 0%; inhibition at 10 g/ha [6]: 100%; inhibition at 10 g/ha [7, 11]: 0%; inhibition at 10 g/ha [9]: 60%; inhibition at 300 g/ha ([9]; 300 g/ha): 80%; inhibition at 900 g/ha ([9]; 900 g/ha): 80%; PPI activity GR80, ALOMY [9]: 100 g/ha; inhibition at 10 g/ha [10]: 20%; inhibition at 30 g/ha ([10]; 30 g/ha): 50%; inhibition at 100 g/ha ([10]; 100 g/ha): 50%; inhibition at 300 g/ha ([10]; 300 g/ha): 100%; inhibition at 900 g/ha ([10]; 900 g/ha): 100%; PPI activity GR80, SORVU [10]: 100 g/ha
CCN(CC)C(=O)n1cnc(S(=O)(=O)C(F)(F)SC)n1 [Example 9] | 300 | – | – | – | – | 30 | 300 g/ha | 300 | – | – | – | – | – | – | – | – | – | 100 | – | – | Percent inhibition TRZAW ([2]; 30 g/ha): 0%; Percent inhibition TRZAW ([2]; 100 g/ha): 0%; Percent inhibition TRZAW ([2]; 300 g/ha): 10%; Percent inhibition TRZAW ([2]; 900 g/ha): 70%; Percent inhibition SETVI ([6]; 30 g/ha): 99%; Percent inhibition SETVI ([6]; 100 g/ha): 100%; Percent inhibition SETVI ([6]; 300 g/ha): 100%; Percent inhibition SETVI ([6]; 900 g/ha): 100%; Percent inhibition LAMPU ([7]; weed, PPI application, 30 g/ha): 0%; Percent inhibition LAMPU ([7]; weed, PPI application, 100 g/ha): 40%; Percent inhibition LAMPU ([7]; weed, PPI application, 300 g/ha): 100%; Percent inhibition LAMPU ([7]; weed, PPI application, 900 g/ha): 95%; Percent inhibition ALOMY ([9]; 30 g/ha): 40%; Percent inhibition ALOMY ([9]; 100 g/ha): 95%; Percent inhibition ALOMY ([9]; 300 g/ha): 100%; Percent inhibition ALOMY ([9]; 900 g/ha): 100%; Percent inhibition SORVU ([10]; 30 g/ha): 60%; Percent inhibition SORVU ([10]; 100 g/ha): 70%; Percent inhibition SORVU ([10]; 300 g/ha): 100%; Percent inhibition SORVU ([10]; 900 g/ha): 100%
C=C(Br)CC(F)(F)S(=O)(=O)c1ncn(C(=O)N(CC)CC)n1 [Example 19] | 300 | 0 | 30 | 70 | 60 | 30 | * (activity observed, at least at highest rate, but <80% inhibition) | 300 | 60 | 100 | 100 | 100 | 30 | 0 | 0 | 99 | 100 | 100 | 50 | 70 | inhibition at 10 g/ha [2]: 0%; inhibition at 10 g/ha [6]: 50%; inhibition at 10 g/ha [7, 11]: 0%; inhibition at 10 g/ha [9]: 60%; inhibition at 300 g/ha ([9]; 300 g/ha): 100%; inhibition at 900 g/ha ([9]; 900 g/ha): 100%; PPI activity GR80, ALOMY [9]: 30 g/ha; inhibition at 10 g/ha [10]: 30%; inhibition at 30 g/ha ([10]; 30 g/ha): 50%; inhibition at 100 g/ha ([10]; 100 g/ha): 65%; inhibition at 300 g/ha ([10]; 300 g/ha): 100%; inhibition at 900 g/ha ([10]; 900 g/ha): 100%; PPI activity GR80, SORVU [10]: 300 g/ha
CCSC(F)(F)S(=O)(=O)c1ncn(C(=O)N(CC)CC)n1 [Example 8, 1-(N,N-diethylcarbamoyl)-3-[difluoro(ethylthio)methylsulfonyl]-1,2,4-triazole] | 100 | 0 | 0 | 20 | 60 | 30 | 100 g/ha | 100 | 100 | 100 | 100 | 100 | 30 | 80 | 90 | 100 | 100 | 100 | 0 | 95 | inhibition at 100 g/ha ([7]; Lamium purpureum, weed, PPI application, 100 g/ha, read-out: Percent inhibition LAMPU): 100%; inhibition at 300 g/ha ([9]; 300 g/ha): 100%; inhibition at 900 g/ha ([9]; 900 g/ha): 100%; PPI activity GR80, ALOMY [9]: 100 g/ha; inhibition at 30 g/ha ([10]; 30 g/ha): 50%; inhibition at 100 g/ha ([10]; 100 g/ha): 70%; inhibition at 300 g/ha ([10]; 300 g/ha): 100%; inhibition at 900 g/ha ([10]; 900 g/ha): 100%; PPI activity GR80, SORVU [10]: 300 g/ha
